This is an account of results in US9024017B2, “Octahydro-cyclopentapyrrolyl antagonists of CCR2” (Janssen Pharmaceutica NV, priority 2012, dated 2015).

This assay deals with T1, CCR2 (Homo sapiens, UniProt P41597).
T1 construct: host or cells: THP-1 (human monocytic cell line)
T1 sequence (P41597 whole entry): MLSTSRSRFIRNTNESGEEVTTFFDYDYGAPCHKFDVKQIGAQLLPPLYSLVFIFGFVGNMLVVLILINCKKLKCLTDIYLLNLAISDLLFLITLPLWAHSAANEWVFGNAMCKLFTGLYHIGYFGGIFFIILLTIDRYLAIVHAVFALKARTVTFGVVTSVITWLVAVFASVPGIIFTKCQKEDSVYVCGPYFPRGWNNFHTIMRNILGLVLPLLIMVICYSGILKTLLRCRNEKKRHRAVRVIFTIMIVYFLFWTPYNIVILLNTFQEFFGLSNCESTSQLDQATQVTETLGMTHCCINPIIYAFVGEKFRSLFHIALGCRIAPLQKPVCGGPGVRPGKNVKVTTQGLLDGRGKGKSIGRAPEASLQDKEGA
As to the kind of experiment: MCP-1 Receptor Binding Assay in THP-1 Cells. To be noted: read-out: MCP1B_v3 IC50. The essentials: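 Human monocytic THP-1 cells incubated 2 h at 30 °C with 0.5 nM 125I-MCP-1 and varying concentrations of test compound or unlabelled MCP-1. Cells filter-harvested and counted by scintillation; blank subtracted, compared with vehicle; nonspecific binding with 1 μM cold MCP-1.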
In the case of `COC1COCCC1N[C@@H]1C[C@H]2CN(C(=O)CCN(C)C)C[C@@]2(C(=O)N2CCc3ncc(C(F)(F)F)cc3C2)C1` (relative stereo) [Example 77, 3-(Dimethylamino)-1-((3aR,5R,6aR)-5-(((3S*,4S*)-3-methoxytetrahydro-2H-pyran-4-yl)amino)-3a-(3-(trifluoromethyl)-5,6,7,8-tetrahydro-1,6-naphthyridine-6-carbonyl)hexahydrocyclopenta[c]pyrrol-2(1H)-yl)propan-1-one], the IC50 worked out at 230 nM.
In the case of `COC1COCCC1N[C@@H]1C[C@H]2CN(C(=O)CCCN(C)C)C[C@@]2(C(=O)N2CCc3ncc(C(F)(F)F)cc3C2)C1` (relative stereo) [Example 78, 4-(Dimethylamino)-1-((3aR,5R,6aR)-5-(((3S*,4S*)-3-methoxytetrahydro-2H-pyran-4-yl)amino)-3a-(3-(trifluoromethyl)-5,6,7,8-tetrahydro-1,6-naphthyridine-6-carbonyl)-hexahydrocyclopenta[c]pyrrol-2(1H)-yl)butan-1-one], the IC50 is 230 nM.
With `COC1COCCC1N[C@@H]1C[C@H]2CN(C(=O)CCN3CCCCC3)C[C@@]2(C(=O)N2CCc3ncc(C(F)(F)F)cc3C2)C1` (relative stereo) [Example 79, 1-((3aR,5R,6aR)-5-(((3S*,4S*)-3-Methoxytetrahydro-2H-pyran-4-yl)amino)-3a-(3-(trifluoromethyl)-5,6,7,8-tetrahydro-1,6-naphthyridine-6-carbonyl)hexahydrocyclopenta-[c]pyrrol-2(1H)-yl)-3-(piperidin-1-yl)propan-1-one] the figure was 500 nM; with `COC1COCCC1N[C@@H]1C[C@H]2CN(C(=O)CCN3CCOCC3)C[C@@]2(C(=O)N2CCc3ncc(C(F)(F)F)cc3C2)C1` (relative stereo) [Example 80, 1-((3aR,5R,6aR)-5-(((3S*,4S*)-3-Methoxytetrahydro-2H-pyran-4-yl)amino)-3a-(3-(trifluoromethyl)-5,6,7,8-tetrahydro-1,6-naphthyridine-6-carbonyl)hexahydrocyclopenta-[c]pyrrol-2(1H)-yl)-3-morpholinopropan-1-one], 230 nM; with `COC1COCCC1N[C@@H]1C[C@H]2CN(C(=O)c3nccs3)C[C@@]2(C(=O)N2CCc3ncc(C(F)(F)F)cc3C2)C1` (relative stereo) [Example 81, ((3aR,5R,6aR)-5-(((3S*,4S*)-3-Methoxytetrahydro-2H-pyran-4-yl)amino)-2-(thiazole-2-carbonyl)octahydrocyclopenta[c]pyrrol-3a-yl)(3-(trifluoromethyl)-7,8-dihydro-1,6-naphthyridin-6(5H)-yl)methanone], 40 nM.
On to `COC1COCCC1N[C@@H]1C[C@H]2CN(C(=O)C#CC3CC3)C[C@@]2(C(=O)N2CCc3ncc(C(F)(F)F)cc3C2)C1` (relative stereo) [Example 86, 3-Cyclopropyl-1-((3aR,5R,6aR)-5-(((3S*,4S*)-3-methoxytetrahydro-2H-pyran-4-yl)amino)-3a-(3-(trifluoromethyl)-5,6,7,8-tetrahydro-1,6-naphthyridine-6-carbonyl)hexahydro-cyclopenta[c]pyrrol-2(1H)-yl)prop-2-yn-1-one], for which the IC50 was 90 nM.
For the compound `COC1COCCC1N[C@@H]1C[C@H]2CN(C(=O)CNC(=O)OC(C)(C)C)C[C@@]2(C(=O)N2CCc3ncc(C(F)(F)F)cc3C2)C1` (relative stereo) [Example 87, tert-Butyl (2-((3aR,5R,6aR)-5-(((3S*,4S*)-3-methoxytetrahydro-2H-pyran-4-yl)amino)-3a-(3-(trifluoromethyl)-5,6,7,8-tetrahydro-1,6-naphthyridine-6-carbonyl)hexahydrocyclopenta[c]pyrrol-2(1H)-yl)-2-oxoethyl)carbamate], the IC50 was 360 nM.
With `COC1COCCC1N[C@@H]1C[C@H]2CN(C(=O)/C=C/CN3CCCC3)C[C@@]2(C(=O)N2CCc3ncc(C(F)(F)F)cc3C2)C1` (relative stereo) [Example 88, (E)-1-((3aR,5R,6aR)-5-(((3S*,4S*)-3-methoxytetrahydro-2H-pyran-4-yl)amino)-3a-(3-(trifluoromethyl)-5,6,7,8-tetrahydro-1,6-naphthyridine-6-carbonyl)hexahydro-cyclopenta[c]pyrrol-2(1H)-yl)-4-(pyrrolidin-1-yl)but-2-en-1-one] the figure was 40 nM; with `CO[C@@H]1COCC[C@@H]1N[C@@H]1C[C@H]2CN(C(=O)/C=C/c3ccc(C(=O)O)cc3)C[C@@]2(C(=O)N2CCc3ccc(C(F)(F)F)cc3C2)C1` (relative stereo) [Example 89, 4-((E)-3-((3aR,5R,6aR)-5-(((3S*,4S*)-3-methoxytetrahydro-2H-pyran-4-yl)amino)-3a-(7-(trifluoromethyl)-1,2,3,4-tetrahydroisoquinoline-2-carbonyl)hexahydrocyclopenta-[c]pyrrol-2(1H)-yl)-3-oxoprop-1-en-1-yl)benzoic acid], 10 nM.
In the case of `CO[C@@H]1COCC[C@@H]1N[C@@H]1C[C@H]2CN(C(=O)/C=C/c3cccc(C(=O)O)c3)C[C@@]2(C(=O)N2CCc3ccc(C(F)(F)F)cc3C2)C1` (relative stereo) [Example 90, 3-((E)-3-((3aR,5R,6aR)-5-(((3S*,4S*)-3-methoxytetrahydro-2H-pyran-4-yl)amino)-3a-(7-(trifluoromethyl)-1,2,3,4-tetrahydroisoquinoline-2-carbonyl)hexahydrocyclopenta-[c]pyrrol-2(1H)-yl)-3-oxoprop-1-en-1-yl)benzoic acid], the IC50 came out at 10 nM.
As to `COC1COCCC1N[C@@H]1C[C@H]2CN(S(C)(=O)=O)C[C@@]2(C(=O)N2CCc3ncc(C(F)(F)F)cc3C2)C1` (relative stereo) [Example 91, ((3aR,5R,6aR)-5-(((3S*,4S*)-3-Methoxytetrahydro-2H-pyran-4-yl)amino)-2-(methylsulfonyl)octahydrocyclopenta[c]pyrrol-3a-yl)(3-(trifluoromethyl)-7,8-dihydro-1,6-naphthyridin-6(5H)-yl)methanone], the IC50 came to 610 nM.
With `COC1COCCC1N[C@@H]1C[C@H]2CN(S(=O)(=O)Cc3ccccc3)C[C@@]2(C(=O)N2CCc3ncc(C(F)(F)F)cc3C2)C1` (relative stereo) [Example 92, ((3aR,5R,6aR)-2-(Benzylsulfonyl)-5-(((3S*,4S*)-3-methoxytetrahydro-2H-pyran-4-yl)amino)octahydrocyclopenta[c]pyrrol-3a-yl)(3-(trifluoromethyl)-7,8-dihydro-1,6-naphthyridin-6(5H)-yl)methanone] the figure was 1100 nM; with `COC1COCCC1N[C@@H]1C[C@H]2CN(S(=O)(=O)CCc3ccccc3)C[C@@]2(C(=O)N2CCc3ncc(C(F)(F)F)cc3C2)C1` (relative stereo) [Example 93, ((3aR,5R,6aR)-5-(((3S*,4S*)-3-Methoxytetrahydro-2H-pyran-4-yl)amino)-2-(phenethylsulfonyl)octahydrocyclopenta[c]pyrrol-3a-yl)(3-(trifluoromethyl)-7,8-dihydro-1,6-naphthyridin-6(5H)-yl)methanone], 980 nM; with `COC1COCCC1N[C@@H]1C[C@H]2CN(C3CC3)C[C@@]2(C(=O)N2CCc3ncc(C(F)(F)F)cc3C2)C1` (relative stereo) [Example 94, ((3aR,5R,6aR)-2-Cyclopropyl-5-(((3S*,4S*)-3-methoxytetrahydro-2H-pyran-4-yl)amino)octahydrocyclopenta[c]pyrrol-3a-yl)(3-(trifluoromethyl)-7,8-dihydro-1,6-naphthyridin-6(5H)-yl)methanone], 180 nM.
The figure for `COC1COCCC1N[C@@H]1C[C@H]2CN(C3CC3)C[C@@]2(C(=O)N2CCc3ccc(C(F)(F)F)cc3C2)C1` (relative stereo) [Example 95, ((3aR,5R,6aR)-2-Cyclopropyl-5-(((3S*,4S*)-3-methoxytetrahydro-2H-pyran-4-yl)amino)octahydrocyclopenta[c]pyrrol-3a-yl)(7-(trifluoromethyl)-3,4-dihydroisoquinolin-2(1H)-yl)methanone] is 30 nM; for `COC1COCCC1N[C@@H]1C[C@H]2CN(C(C)C)C[C@@]2(C(=O)N2CCc3ncc(C(F)(F)F)cc3C2)C1` (relative stereo) [Example 96, ((3aR,5R,6aR)-2-Isopropyl-5-(((3S*,4S*)-3-methoxytetrahydro-2H-pyran-4-yl)amino)octahydrocyclopenta[c]pyrrol-3a-yl)(3-(trifluoromethyl)-7,8-dihydro-1,6-naphthyridin-6(5H)-yl)methanone] it is 1220 nM; for `CCN1C[C@@H]2C[C@@H](NC3CCOCC3OC)C[C@]2(C(=O)N2CCc3ncc(C(F)(F)F)cc3C2)C1` (relative stereo) [Example 98, ((3aR,5R,6aR)-2-Ethyl-5-(((3S*,4S*)-3-methoxytetrahydro-2H-pyran-4-yl)amino)octahydrocyclopenta[c]pyrrol-3a-yl)(3-(trifluoromethyl)-7,8-dihydro-1,6-naphthyridin-6(5H)-yl)methanone] it is 630 nM.
The figure for `COC1COCCC1N[C@@H]1C[C@H]2CN(C3COC3)C[C@@]2(C(=O)N2CCc3ncc(C(F)(F)F)cc3C2)C1` (relative stereo) [Example 99, ((3aR,5R,6aR)-5-(((3S*,4S*)-3-methoxytetrahydro-2H-pyran-4-yl)amino)-2-(oxetan-3-yl)octahydrocyclopenta[c]pyrrol-3a-yl)(3-(trifluoromethyl)-7,8-dihydro-1,6-naphthyridin-6(5H)-yl)methanone] is 130 nM.
Take `COC1COCCC1N[C@@H]1C[C@H]2CN(C3COC3)C[C@@]2(C(=O)N2CCc3ccc(C(F)(F)F)cc3C2)C1` (relative stereo) [Example 100, ((3aR,5R,6aR)-5-(((3S*,4S*)-3-Methoxytetrahydro-2H-pyran-4-yl)amino)-2-(oxetan-3-yl)octahydrocyclopenta[c]pyrrol-3a-yl)(7-(trifluoromethyl)-3,4-dihydroisoquinolin-2(1H)-yl)methanone]: the IC50 came to 30 nM.
